Assay results from paper PMC5352556 (Journal of chemical neuroanatomy, 2016).
Counter-ions that a name gives are not always drawn.

What was measured:
Format in all cases: cell-based
rat Pmat (rPmat) = test: Concentration dependence of rPmat-mediated substrate uptake in MDCK/rPmat cells; conditions: rPmat-mediated uptake, MDCK/rPmat minus mock, 3 min, 37 °C, pH 7.4
human PMAT (hPMAT) = biological target: T1, human PMAT (hPMAT) (Homo sapiens, UniProt Q7RTT9); test: Concentration dependence of hPMAT-mediated substrate uptake in MDCK/hPMAT cells; conditions: hPMAT-mediated uptake, MDCK/hPMAT minus mock, 3 min, 37 °C, pH 7.4
T1 sequence (Q7RTT9 1-530): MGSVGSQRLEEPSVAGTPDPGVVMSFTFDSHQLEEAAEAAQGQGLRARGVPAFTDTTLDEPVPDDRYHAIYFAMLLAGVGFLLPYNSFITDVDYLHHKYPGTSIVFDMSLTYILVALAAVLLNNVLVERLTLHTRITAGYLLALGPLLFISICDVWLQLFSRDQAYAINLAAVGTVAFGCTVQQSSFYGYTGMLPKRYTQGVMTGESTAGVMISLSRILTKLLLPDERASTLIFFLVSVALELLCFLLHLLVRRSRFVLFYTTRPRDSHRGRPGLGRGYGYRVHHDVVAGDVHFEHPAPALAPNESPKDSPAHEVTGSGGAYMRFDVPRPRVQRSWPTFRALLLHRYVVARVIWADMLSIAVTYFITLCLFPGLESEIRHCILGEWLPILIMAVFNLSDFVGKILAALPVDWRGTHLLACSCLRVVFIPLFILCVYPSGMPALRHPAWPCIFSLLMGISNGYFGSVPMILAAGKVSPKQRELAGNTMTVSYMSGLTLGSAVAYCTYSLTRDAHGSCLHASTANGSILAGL

mouse Pmat (mPmat) = biological target: T2, mouse Pmat (mPmat) (Mus musculus, UniProt Q8R139); conditions: mPmat-mediated uptake, Flp293/mPmat minus mock, 2 min, 37 °C, pH 7.4
T2 sequence (Q8R139 1-528): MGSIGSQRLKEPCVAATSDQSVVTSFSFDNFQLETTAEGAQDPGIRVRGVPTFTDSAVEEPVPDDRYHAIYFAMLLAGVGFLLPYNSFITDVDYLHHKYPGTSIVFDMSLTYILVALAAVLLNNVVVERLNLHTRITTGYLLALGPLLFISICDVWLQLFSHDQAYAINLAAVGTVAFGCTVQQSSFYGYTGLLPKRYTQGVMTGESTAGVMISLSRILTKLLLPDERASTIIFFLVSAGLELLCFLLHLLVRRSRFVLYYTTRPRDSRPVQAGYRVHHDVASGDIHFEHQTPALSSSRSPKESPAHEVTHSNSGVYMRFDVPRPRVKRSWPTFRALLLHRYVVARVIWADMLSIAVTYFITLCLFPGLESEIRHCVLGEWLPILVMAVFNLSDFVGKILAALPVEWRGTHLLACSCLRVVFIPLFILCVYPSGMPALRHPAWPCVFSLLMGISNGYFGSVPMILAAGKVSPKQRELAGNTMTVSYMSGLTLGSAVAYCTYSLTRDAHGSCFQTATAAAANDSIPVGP

SMILES | Km (rat Pmat (rPmat)) [µM] | Vmax (rat Pmat (rPmat)) [nmol/min/mg protein] | Vmax (rat Pmat (rPmat); listed as dopamine) [nmol/min/mg protein] | Km (human PMAT (hPMAT)) [µM] | Vmax (human PMAT (hPMAT)) [nmol/min/mg protein] | Km (mouse Pmat (mPmat)) [µM] | Vmax (mouse Pmat (mPmat)) [nmol/min/mg protein]
[3H]c1c([3H])c(CCN)c([3H])c(O)c1O [Dopamine, 3,4-dihydroxy-[2,5,6-^3H]phenylethylamine] | 271 ± 50 | 0.750 ± 0.049 | 0.750 ± 0.049 | 201 ± 34 | 1.43 ± 0.08 |  | 
C[n+]1ccc(-c2ccccc2)cc1 [MPP^+, 1-methyl-4-phenylpyridinium] | 70.2 ± 12.3 | 0.210 ± 0.011 |  | 33.7 ± 6 | 0.490 ± 0.190 | 49.5 ± 0.1 | 1.59 ± 0.068
NCCc1c[nH]c2ccc(O)cc12 [Serotonin, 5-hydroxy-[1,2-^3H]tryptamine creatinine sulfate] | 82.9 ± 21.2 | 1.26 ± 0.12 |  | 116 ± 27 |  |  | 
